Measurements as given in patent US5756763A, “Pyrrolidine derivatives” (Zaidan Hojin Biseibutsu Kagaku Kenkyukai, priority 1993, dated 1998).

How the values were obtained:
[1] = system: prolyl endopeptidase in mouse brain; test: Prolyl endopeptidase inhibition activity in mouse brain after intravenous administration; type: in vivo, mouse (male ddy strain); conditions: 30 mg/kg i.v., 30 minutes after administration, control = 100
Experimental: (§1) Using 0.1 mM of benzyolxycarbonylglycylproline-β-naphthylamide as substrate and swine kidney-derived prolyl endopeptidase as enzyme, the enzyme was acted on the substrate at 37° C. for 30 minutes in 0.025 M Tris(hydroxymethyl)methane amine-hydrochloric acid (pH 7.5) solution. Fast Garnet was added to form a color and absorbance was measured at 525 nm. The inhibitory activity is expressed in terms of concentration required for 50% inhibition (IC50).
Each of the compounds of the present invention was dissolved in physiological saline or physiological saline added with a surfactant. The solution was intravenously administered to male ddy strain mice (3 in one group) at a dose of 30 mg/kg. For control, physiological saline or a surfactant alone was intravenously given to 3 mice in a similar manner.
Thirty minutes after administration, the animal was bled to death and the whole brain was excised out. Each brain was homogenized with 20-fold volume of 0.1M phosphate buffer containing 2 mM DTT and the homogenate was centrifuged at 3000 g for 20 minutes. The prolyl endopeptidase in the resulting supernatant was determined as in Experiment 1, as β-naphthylamine isolated. When the mean enzyme activity in the mouse brain for control is made 100 (β-naphthylamine value: 3.88±0.26), the residual enzyme activity was determined when the compounds of the present invention was administered.

prolyl endopeptidase = target: T1, prolyl endopeptidase (Sus scrofa, UniProt P23687); test: Enzyme inhibitory action on swine kidney-derived prolyl endopeptidase (Z-Gly-Pro-β-naphthylamide substrate); type: biochemical; conditions: swine kidney prolyl endopeptidase, 0.1 mM substrate, 37° C., 30 minutes, pH 7.5
T1 construct: swine kidney-derived prolyl endopeptidase; from tissue; host or cells: swine kidney
Experimental: as §1

T1 sequence (P23687 whole entry): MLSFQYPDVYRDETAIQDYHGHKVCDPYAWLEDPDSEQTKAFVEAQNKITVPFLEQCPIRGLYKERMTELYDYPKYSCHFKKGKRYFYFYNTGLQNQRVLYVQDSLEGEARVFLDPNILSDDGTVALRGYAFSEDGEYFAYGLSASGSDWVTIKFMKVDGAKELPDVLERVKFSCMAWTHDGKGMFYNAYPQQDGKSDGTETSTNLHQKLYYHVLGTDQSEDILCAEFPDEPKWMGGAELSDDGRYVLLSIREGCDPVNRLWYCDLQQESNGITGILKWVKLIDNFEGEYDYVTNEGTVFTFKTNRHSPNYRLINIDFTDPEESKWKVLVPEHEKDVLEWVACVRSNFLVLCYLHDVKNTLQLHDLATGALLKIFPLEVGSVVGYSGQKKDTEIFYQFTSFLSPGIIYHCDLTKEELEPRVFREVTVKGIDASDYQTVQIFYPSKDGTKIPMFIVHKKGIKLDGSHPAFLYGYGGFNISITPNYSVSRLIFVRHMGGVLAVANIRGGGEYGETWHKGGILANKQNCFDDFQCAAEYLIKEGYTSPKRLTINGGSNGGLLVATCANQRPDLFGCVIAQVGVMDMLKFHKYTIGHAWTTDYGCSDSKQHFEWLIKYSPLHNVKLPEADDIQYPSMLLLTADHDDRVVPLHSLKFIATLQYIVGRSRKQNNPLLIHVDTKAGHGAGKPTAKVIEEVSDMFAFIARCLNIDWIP

| SMILES | Residual Enzyme Activity (%) [1] [%] | IC50 (prolyl endopeptidase) [nM] |
| --- | --- | --- |
| O=C(NC1CCCCC1)C(=O)C1CCCN1C(=O)C(Cc1ccccc1)NC(=O)c1ccccn1 (stereo not drawn) [Example 26, N-Cyclohexyl-2-oxo-2-[2-(1-(N-(2-pyridylcarbonyl)phenylalanyl)pyrrolidinyl)]acetamide] | 5.7 | 1.78 |
| O=C(NC1CCCCC1)C(=O)C1CCCN1C(=O)c1ccc2ccccc2c1 (stereo not drawn) [Example 64, N-Cyclohexyl-2-oxo-2-[2-(1-(2-naphthoyl)pyrrolidinyl)]acetamide] | 50.5 | 21.7 |
| O=C(NC1CCCCC1)C(=O)C1CCCN1C(=O)c1ccc(CN2CCOCC2)cc1 (stereo not drawn) [Example 84, N-Cyclohexyl-2-oxo-2-[2-(1-(4-morpholinomethylbenzoyl)pyrrolidinyl)]acetamide] | 50.3 | 72.5 |
| O=C(NC1CCCCC1)C(=O)C1CCCN1C(=O)C(CC1CCCCC1)NC(=O)c1ccc2ccccc2n1 (stereo not drawn) [Example 124, N-Cyclohexyl-2-oxo-2-[2-(1-(N-(2-quinolylcarbonyl)-β-cyclohexylalanyl)pyrrolidinyl)]acetamide] | – | 3.75 |
| CC(C)(C)OC(=O)N1c2ccccc2CC1C(=O)N1CCCC1C(=O)C(=O)NC1CCCCC1 (stereo not drawn) [Example 126, N-Cyclohexyl-2-oxo-2-[2-(1-(1-t-butoxycarbonyl-2,3-dihydroindole-2-carbonyl)pyrrolidinyl)]acetamide] | – | 1.7 |
| O=C[C@@H]1CCCN1C(=O)[C@H](Cc1ccccc1)NC(=O)c1cccc(Oc2ccccc2)c1 [Reference Example 4, N-(N-(3-Phenoxybenzoyl)-L-phenylalanyl)-L-prolinal, reference compound] | – | 249 |
